The values that follow come from ChEMBL document CHEMBL5465560, “Selectivity Literature for EUbOPEN Chemogenomic Library” (2024).

The target in test [1] is Ribosomal protein S6 kinase alpha-1 (Homo sapiens, UniProt Q15418). As to the kind of experiment: Selectivity interaction (Ambit KINOMEscan and KiNATiv profiling in Jurkat cells) EUB0000090b RPS6KA1. The format is cell-based. The following applies: at 1 µM.
Test [2] deals with Tyrosine-protein kinase ABL1 (Homo sapiens), P00519 [T315I]. The following applies: at 10 µM.
In test [3] the target is cAMP-dependent protein kinase catalytic subunit alpha (Homo sapiens, UniProt P17612). As to the kind of experiment: Selectivity interaction (KinomeScan (DiscoverX)) EUB0000229b PRKACA. The conditions noted are these: at 10 µM.
Test [4] addresses T1, Mitogen-activated protein kinase kinase kinase 6 (Homo sapiens) (UniProt O95382).
T1 sequence (whole entry): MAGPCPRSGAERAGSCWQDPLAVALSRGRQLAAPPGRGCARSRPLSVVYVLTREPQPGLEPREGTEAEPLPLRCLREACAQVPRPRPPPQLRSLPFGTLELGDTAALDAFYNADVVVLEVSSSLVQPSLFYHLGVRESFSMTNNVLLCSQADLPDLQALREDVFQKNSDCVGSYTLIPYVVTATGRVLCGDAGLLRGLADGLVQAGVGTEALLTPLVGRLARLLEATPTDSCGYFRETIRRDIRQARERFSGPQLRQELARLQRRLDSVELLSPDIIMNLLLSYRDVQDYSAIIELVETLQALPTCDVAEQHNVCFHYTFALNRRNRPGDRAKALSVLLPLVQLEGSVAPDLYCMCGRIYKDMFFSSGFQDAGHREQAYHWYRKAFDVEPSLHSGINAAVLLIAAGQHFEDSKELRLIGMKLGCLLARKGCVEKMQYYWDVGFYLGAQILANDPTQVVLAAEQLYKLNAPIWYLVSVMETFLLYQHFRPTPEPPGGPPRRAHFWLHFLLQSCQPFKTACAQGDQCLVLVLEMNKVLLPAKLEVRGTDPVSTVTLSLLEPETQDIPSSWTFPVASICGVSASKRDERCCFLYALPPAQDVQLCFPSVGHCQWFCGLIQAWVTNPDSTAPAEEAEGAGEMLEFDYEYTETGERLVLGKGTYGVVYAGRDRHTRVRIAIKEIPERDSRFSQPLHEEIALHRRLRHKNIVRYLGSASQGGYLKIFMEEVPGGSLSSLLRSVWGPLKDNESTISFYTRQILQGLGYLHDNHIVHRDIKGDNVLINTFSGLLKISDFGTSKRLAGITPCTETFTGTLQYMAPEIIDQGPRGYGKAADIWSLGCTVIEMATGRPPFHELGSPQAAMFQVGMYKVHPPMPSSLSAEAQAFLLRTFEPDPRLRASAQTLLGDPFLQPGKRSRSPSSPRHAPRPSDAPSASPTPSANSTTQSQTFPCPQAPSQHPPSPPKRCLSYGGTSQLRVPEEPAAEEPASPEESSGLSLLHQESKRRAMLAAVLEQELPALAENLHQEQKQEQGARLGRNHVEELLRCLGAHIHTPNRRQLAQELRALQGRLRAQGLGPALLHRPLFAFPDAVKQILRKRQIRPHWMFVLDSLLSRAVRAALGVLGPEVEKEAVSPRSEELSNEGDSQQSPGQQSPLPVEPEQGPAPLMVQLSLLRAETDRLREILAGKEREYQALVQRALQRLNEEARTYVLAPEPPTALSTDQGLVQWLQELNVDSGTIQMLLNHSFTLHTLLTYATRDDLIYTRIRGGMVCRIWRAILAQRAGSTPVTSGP
As to the kind of experiment: Selectivity interaction (ActivX KiNativ screen (kinase selectivity in THP-1 cell lysates)) EUB0000639a MAP3K6. The format is subcellular. The following applies: lysate.

Test [5] addresses Dual specificity testis-specific protein kinase 1 (Homo sapiens) (UniProt Q15569). The following applies: at 10 µM.
In test [6] the target is T2, Receptor-type tyrosine-protein kinase FLT3 (Homo sapiens, UniProt P36888).
T2 sequence (P36888 whole entry): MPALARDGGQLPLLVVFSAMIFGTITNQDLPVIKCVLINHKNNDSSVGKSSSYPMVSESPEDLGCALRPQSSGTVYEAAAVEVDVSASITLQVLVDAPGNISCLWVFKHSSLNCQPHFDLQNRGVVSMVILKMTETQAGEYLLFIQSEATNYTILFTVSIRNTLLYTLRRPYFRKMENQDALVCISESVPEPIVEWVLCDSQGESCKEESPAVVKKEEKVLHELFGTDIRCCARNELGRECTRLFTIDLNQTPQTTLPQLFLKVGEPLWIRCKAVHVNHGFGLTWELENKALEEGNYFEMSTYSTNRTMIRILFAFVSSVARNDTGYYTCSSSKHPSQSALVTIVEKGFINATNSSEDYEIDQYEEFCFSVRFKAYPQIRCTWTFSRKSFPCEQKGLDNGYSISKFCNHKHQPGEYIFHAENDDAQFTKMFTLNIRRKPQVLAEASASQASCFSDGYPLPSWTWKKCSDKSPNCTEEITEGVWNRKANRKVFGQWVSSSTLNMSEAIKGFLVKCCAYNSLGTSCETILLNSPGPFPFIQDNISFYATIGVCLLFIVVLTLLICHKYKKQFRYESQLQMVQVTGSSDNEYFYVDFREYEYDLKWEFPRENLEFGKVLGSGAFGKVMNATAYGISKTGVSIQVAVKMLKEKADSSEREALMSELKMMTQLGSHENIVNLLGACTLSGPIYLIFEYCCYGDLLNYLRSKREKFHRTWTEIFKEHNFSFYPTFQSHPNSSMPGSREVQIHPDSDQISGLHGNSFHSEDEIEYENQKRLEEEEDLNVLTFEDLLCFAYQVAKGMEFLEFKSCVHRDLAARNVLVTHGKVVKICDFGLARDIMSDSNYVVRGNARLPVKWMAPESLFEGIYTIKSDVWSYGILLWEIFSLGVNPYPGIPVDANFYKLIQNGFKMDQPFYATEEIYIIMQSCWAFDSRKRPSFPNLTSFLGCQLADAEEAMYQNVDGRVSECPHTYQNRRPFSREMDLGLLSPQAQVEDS
As to the kind of experiment: Selectivity interaction (NanoBRET assay (HEK293T cells)) EUB0001559a FLT3. The class given is cell-based, HEK-293T.

For test [7], the target named is Hepatocyte growth factor receptor (Homo sapiens, UniProt P08581). Description: Selectivity interaction (KinomeScan (DiscoverX)) EUB0000045b MET.
Hepatocyte growth factor receptor, sequence (P08581 whole entry): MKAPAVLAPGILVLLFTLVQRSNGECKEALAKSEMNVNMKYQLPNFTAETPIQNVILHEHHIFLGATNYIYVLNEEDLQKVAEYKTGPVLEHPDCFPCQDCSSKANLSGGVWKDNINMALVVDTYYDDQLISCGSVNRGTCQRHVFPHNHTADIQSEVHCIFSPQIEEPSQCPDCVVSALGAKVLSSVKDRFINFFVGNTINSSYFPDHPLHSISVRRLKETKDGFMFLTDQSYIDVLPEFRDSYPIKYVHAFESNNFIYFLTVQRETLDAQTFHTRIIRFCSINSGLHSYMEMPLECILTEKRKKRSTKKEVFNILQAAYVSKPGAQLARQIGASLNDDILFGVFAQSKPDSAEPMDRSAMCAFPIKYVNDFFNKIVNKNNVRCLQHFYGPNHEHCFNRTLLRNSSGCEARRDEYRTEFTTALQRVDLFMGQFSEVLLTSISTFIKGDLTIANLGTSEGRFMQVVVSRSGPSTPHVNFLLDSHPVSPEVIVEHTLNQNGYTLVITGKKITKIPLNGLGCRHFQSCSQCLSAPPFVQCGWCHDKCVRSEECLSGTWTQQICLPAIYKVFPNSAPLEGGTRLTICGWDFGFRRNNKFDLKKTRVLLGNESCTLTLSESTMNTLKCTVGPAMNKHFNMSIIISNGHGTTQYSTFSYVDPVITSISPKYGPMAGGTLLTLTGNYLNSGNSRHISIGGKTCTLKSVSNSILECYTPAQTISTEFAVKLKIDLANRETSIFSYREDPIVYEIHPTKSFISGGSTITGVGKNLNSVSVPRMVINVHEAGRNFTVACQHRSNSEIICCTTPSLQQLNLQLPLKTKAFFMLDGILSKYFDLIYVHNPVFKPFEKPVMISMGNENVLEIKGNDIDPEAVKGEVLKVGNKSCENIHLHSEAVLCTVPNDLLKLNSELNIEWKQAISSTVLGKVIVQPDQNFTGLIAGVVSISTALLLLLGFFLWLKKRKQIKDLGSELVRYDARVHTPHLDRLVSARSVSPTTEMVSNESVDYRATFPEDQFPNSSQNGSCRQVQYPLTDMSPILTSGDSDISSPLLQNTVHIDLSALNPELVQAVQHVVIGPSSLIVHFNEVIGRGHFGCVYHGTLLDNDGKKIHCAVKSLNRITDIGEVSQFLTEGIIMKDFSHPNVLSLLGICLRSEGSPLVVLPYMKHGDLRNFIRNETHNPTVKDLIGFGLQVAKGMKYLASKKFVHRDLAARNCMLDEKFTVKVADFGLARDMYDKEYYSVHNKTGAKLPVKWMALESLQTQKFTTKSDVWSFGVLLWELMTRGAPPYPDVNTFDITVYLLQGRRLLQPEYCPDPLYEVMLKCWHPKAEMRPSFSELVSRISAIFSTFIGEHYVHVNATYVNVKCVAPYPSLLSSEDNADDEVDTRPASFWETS

Dual specificity testis-specific protein kinase 1 (Homo sapiens), sequence (Q15569 whole entry, looked up): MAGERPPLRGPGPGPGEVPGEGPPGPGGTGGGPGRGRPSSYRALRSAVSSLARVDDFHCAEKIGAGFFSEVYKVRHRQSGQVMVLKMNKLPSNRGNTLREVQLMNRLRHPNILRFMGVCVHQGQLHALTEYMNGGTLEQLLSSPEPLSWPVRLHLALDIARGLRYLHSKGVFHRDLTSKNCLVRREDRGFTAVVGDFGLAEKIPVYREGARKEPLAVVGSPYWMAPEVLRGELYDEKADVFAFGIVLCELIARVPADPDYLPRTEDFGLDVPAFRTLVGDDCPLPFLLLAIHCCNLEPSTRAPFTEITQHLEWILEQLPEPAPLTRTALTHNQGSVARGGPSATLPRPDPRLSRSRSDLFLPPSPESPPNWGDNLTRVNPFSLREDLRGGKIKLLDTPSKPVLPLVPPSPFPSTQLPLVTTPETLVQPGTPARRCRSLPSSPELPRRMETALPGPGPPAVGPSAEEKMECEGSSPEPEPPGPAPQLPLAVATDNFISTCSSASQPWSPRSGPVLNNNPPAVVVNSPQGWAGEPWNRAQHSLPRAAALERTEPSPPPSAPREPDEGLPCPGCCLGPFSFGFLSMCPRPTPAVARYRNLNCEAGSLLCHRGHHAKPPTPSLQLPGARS
Ribosomal protein S6 kinase alpha-1, sequence (Q15418 whole entry): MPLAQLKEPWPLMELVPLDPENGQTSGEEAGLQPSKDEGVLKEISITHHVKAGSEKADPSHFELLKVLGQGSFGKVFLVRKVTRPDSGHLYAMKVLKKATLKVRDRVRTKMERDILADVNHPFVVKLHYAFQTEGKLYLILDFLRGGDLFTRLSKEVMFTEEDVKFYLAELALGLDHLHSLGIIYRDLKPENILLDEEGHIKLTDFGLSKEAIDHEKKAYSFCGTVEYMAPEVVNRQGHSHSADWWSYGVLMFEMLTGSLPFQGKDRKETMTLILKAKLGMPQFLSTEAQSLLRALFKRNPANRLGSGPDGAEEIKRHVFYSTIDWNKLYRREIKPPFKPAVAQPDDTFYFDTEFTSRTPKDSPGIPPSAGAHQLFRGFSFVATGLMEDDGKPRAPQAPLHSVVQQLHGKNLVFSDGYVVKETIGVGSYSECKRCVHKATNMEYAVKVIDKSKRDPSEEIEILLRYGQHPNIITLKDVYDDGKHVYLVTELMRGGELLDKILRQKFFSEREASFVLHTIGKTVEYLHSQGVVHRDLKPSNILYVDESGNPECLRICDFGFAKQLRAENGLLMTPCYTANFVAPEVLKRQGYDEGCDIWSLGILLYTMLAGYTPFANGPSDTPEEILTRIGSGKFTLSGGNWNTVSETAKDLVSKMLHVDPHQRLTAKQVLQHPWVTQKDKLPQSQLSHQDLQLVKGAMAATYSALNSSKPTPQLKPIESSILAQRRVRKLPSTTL

Take `CN(C)C/C=C/C(=O)Nc1ccc(C(=O)N2CCCC(Nc3ncc(Cl)c(-c4c[nH]c5ccccc45)n3)C2)cc1` (configuration not stated): the % of control in test [1] is 14%. In turn, `Cc1cc([C@@H](C)Nc2ccccc2C(=O)O)c2nc(N3CCOCC3)cc(=O)n2c1` [AZD-6482] yielded a % of control in test [2] of 100%. `COc1cc(N(C)c2ccnc3ccc(C(F)(F)F)cc23)cc(OC)c1OC` displayed a % binding in test [3] of 100%. `CC[C@@H]1[C@H](F)C(=O)N[C@@H]1COc1nccc2cc(C(N)=O)c(OC)cc12` [ZIMLOVISERTIB]: the % of inhibition in test [4] (at 0.01 µM) was -12.1%; in test [4] (at 0.04 µM) it was -3.2%; in test [4] (at 0.2 µM), 0%; in test [4] (at 1 µM), -6.5%; in test [4] (at 5 µM), -21.9%.

The compound `CCN(CC)CCCCNc1ncc2cc(-c3cc(OC)cc(OC)c3)c(NC(=O)NC(C)(C)C)nc2n1` had a % of control in test [5] of 100%. Compound `CN(C(=O)c1cnn2cccnc12)c1cc2c(cc1N1CCOCC1)C(=O)N(C[C@@H](F)C(C)(C)O)C2` registered an EC50 in test [6] of 3.6 mM.

In the case of `C=CC(=O)Nc1cc(-n2c(=O)ccc3cnc4ccc(-c5ccc(NS(C)(=O)=O)cc5)cc4c32)ccc1C`, the % of control was determined as 100% in test [7] (at 1 µM) and 64% in test [7] (at 10 µM).
